Assay results: patent US9113629B2, “4-amino-6-(4-substituted-phenyl)-picolinates and 6-amino-2-(4-substituted-phenyl)-pyrimidine-4-carboxylates and their use as herbicides” (DOW AGROSCIENCES LLC, priority 2013, dated 2015)
Where two headings read alike, the source gives them in different places.

Experiments:
[1] = tested on: Key Broadleaf Weed and Crop Species; test: Post-emergent Test II herbicidal activity (Table 5); format: in vivo; settings: post-emergence, 336 h, 14 days after application; for pest or weed control at 70 g/ha: application rate 70 g ai/ha
Outline: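 Plants grown in Metro-Mix 360 (pH 6.0–6.8) in a greenhouse (~15 h photoperiod, 23–29 °C day) to first or second true leaf stage, then sprayed with compound in acetone/DMSO/aqueous crop-oil-surfactant carrier at 187 L/ha by track sprayer. Injury visually scored 0–100% versus untreated plants after 14 d.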

[2] = tested on: Key Grass and Sedge Weeds as well as Grass Crops; test: Post-emergent Test II herbicidal activity (Table 6); format: in vivo; settings: post-emergence, 336 h; for pest or weed control at 140 g/ha: application rate 140 g ai/ha; for pest or weed control at 70 g/ha: application rate 70 g ai/ha
Procedure: Post-emergent Test II: Seeds or nutlets of the desired test plant species were planted in Sun Gro Metro-Mix® 360 planting mixture, which typically has a pH of 6.0 to 6.8 and an organic matter content of about 30 percent, in plastic pots with a surface area of 64 square centimeters. When required to ensure good germination and healthy plants, a fungicide treatment and/or other chemical or physical treatment was applied. The plants were grown for 7-21 d in a greenhouse with an approximate 15 h photoperiod which was maintained at about 23-29° C. during the day and 22-28° C. during the night. Nutrients and water were added on a regular basis and supplemental lighting was provided with overhead metal halide 1000-Watt lamps as necessary. The plants were employed for testing when they reached the first or second true leaf stage.
A weighed amount, determined by the highest rate to be tested, of each test compound was placed in a 25 mL glass vial and was dissolved in 4 mL of a 97:3 v/v mixture of acetone and DMSO to obtain concentrated stock solutions. […] The concentrated stock solutions obtained were diluted with 20 mL of an aqueous mixture containing acetone, water, isopropyl alcohol, DMSO. Atplus 411F crop oil concentrate, and Triton® X-155 surfactant in a 48.5:39:10:1.5:1.0:0.02 v/v ratio to obtain spray solutions containing the highest application rates. Additional application rates were obtained by serial dilution of 12 mL of the high rate solution into a solution containing 2 mL of 97:3 v/v mixture of acetone and DMSO and 10 mL of an aqueous mixture containing acetone, water, isopropyl alcohol, DMSO, Atplus 411F crop oil concentrate, and Triton X-155 surfactant in a 48.5:39:10:1.5:1.0:0.02 v/v ratio to obtain ½×, ¼×, ⅛× and 1/16× rates of the high rate. Compound requirements are based upon a 12 mL application volume at a rate of 187 liters per hectare (L/ha). Formulated compounds were applied to the plant material with an overhead Mandel track sprayer equipped with 8002E nozzles calibrated to deliver 187 L/ha over an application area of 0.503 square meters at a spray height of 18 inches (43 cm) above the average plant canopy height. Control plants were sprayed in the same manner with the solvent blank.
The treated plants and control plants were placed in a greenhouse as described above and watered by subirrigation to prevent wash-off of the test compounds. After 14 d, the condition of the test plants as compared with that of the untreated plants was determined visually and scored on a scale of 0 to 100 percent where 0 corresponds to no injury and 100 corresponds to complete kill.

[3] = ABUTH: velvetleaf (Abutilon theophrasti), 140 g ai/ha, post-emergent, read-out: Visual Growth Reduction (%) 14 Days After Application ABUTH
[4] = AMARE: redroot pigweed (Amaranthus retroflexus), 140 g ai/ha, post-emergent, read-out: Visual Growth Reduction (%) 14 Days After Application AMARE
[5] = BRSNN: oilseed-rape, canola (Brassica napus), 140 g ai/ha, post-emergent, read-out: Visual Growth Reduction (%) 14 Days After Application BRSNN
[6] = CHEAL: lambsquarters (Chenopodium album), 140 g ai/ha, post-emergent, read-out: Visual Growth Reduction (%) 14 Days After Application CHEAL
[7] = EPHHL: wild poinsettia (Euphorbia heterophylla), 140 g ai/ha, post-emergent, read-out: Visual Growth Reduction (%) 14 Days After Application EPHHL
[8] = HELAN: sunflower (Helianthus annuus), 140 g ai/ha, post-emergent, read-out: Visual Growth Reduction (%) 14 Days After Application HELAN
[9] = VIOTR: wild pansy (Viola tricolor), 140 g ai/ha, post-emergent, read-out: Visual Growth Reduction (%) 14 Days After Application VIOTR
[10] = Triticum aestivum, TRZSS (wheat), read-out: Visual Growth Reduction (%) 14 Days After Application, TRZSS
[11] = CYPES: yellow nutsedge (Cyperus esculentus), read-out: Visual Growth Reduction (%) 14 Days After Application, CYPES
[12] = DIGSA: crabgrass (Digitaria sanguinalis), read-out: Visual Growth Reduction (%) 14 Days After Application, DIGSA
[13] = ECHCG: barnyardgrass (Echinochloa crus-galli), read-out: Visual Growth Reduction (%) 14 Days After Application, ECHCG
[14] = ORYSA: rice (Oryza sativa), read-out: Visual Growth Reduction (%) 14 Days After Application, ORYSA
[15] = SETFA: giant foxtail (Setaria faberi), read-out: Visual Growth Reduction (%) 14 Days After Application, SETFA
[16] = SORVU: grain sorghum (Sorghum vulgare), read-out: Visual Growth Reduction (%) 14 Days After Application, SORVU
[17] = ZEAMX: maize, corn (Zea mays), read-out: Visual Growth Reduction (%) 14 Days After Application, ZEAMX

Compound | pest or weed control at 140 g/ha [1, 3] | pest or weed control at 140 g/ha [1, 4] | pest or weed control at 140 g/ha [1, 5] | pest or weed control at 140 g/ha [1, 6] | pest or weed control at 140 g/ha [1, 7] | pest or weed control at 140 g/ha [1, 8] | pest or weed control at 140 g/ha [1, 9] | pest or weed control at 140 g/ha [2, 10] | pest or weed control at 140 g/ha [2, 11] | pest or weed control at 140 g/ha [2, 12] | pest or weed control at 140 g/ha [2, 13] | pest or weed control at 140 g/ha [2, 14] | pest or weed control at 140 g/ha [2, 15] | pest or weed control at 140 g/ha [2, 16] | pest or weed control at 140 g/ha [2, 17] | melting point | also measured
COc1c(N)nc(-c2ccc(OC(F)(F)F)cc2)nc1C(=O)O [Compound 102] | 0 to 29% | 0 to 29% | 0 to 29% | 0 to 29% | 95 to 100% | 60 to 74% | 0 to 29% | 0 to 29% | 0 to 29% | 0 to 29% | 0 to 29% | 0 to 29% | 0 to 29% | 0 to 29% | 0 to 29% | 171 to 172.1 °C | –
Nc1c(Cl)c(C(=O)O)nc(-c2ccc(OC(F)(F)F)cc2)c1Cl [Compound 105] | 0 to 29% | 0 to 29% | 0 to 29% | 0 to 29% | 0 to 29% | 95 to 100% | 0 to 29% | 0 to 29% | 0 to 29% | 0 to 29% | 0 to 29% | 0 to 29% | 0 to 29% | 0 to 29% | 0 to 29% | 141.9 to 143.1 °C | –
COC(=O)c1nc(-c2ccc(C#N)cc2)nc(N)c1OC [Compound 130] | 0 to 29% | 0 to 29% | 0 to 29% | 0 to 29% | 95 to 100% | 85 to 94% | 0 to 29% | 0 to 29% | 0 to 29% | 0 to 29% | 0 to 29% | 0 to 29% | 0 to 29% | 0 to 29% | 0 to 29% | 185.1 to 186.9 °C | –
Nc1c(F)c(-c2ccc(OC(F)F)cc2F)nc(C(=O)O)c1Cl [Compound 140] | – | – | – | – | – | – | – | 0 to 29% | 0 to 29% | 0 to 29% | – | 0 to 29% | – | 0 to 29% | 0 to 29% | 149 to 151 °C | pest or weed control at 70 g/ha ([1]; ABUTH: velvetleaf (Abutilon theophrasti), read-out: Visual Growth Reduction (%) 14 Days After Application, ABUTH): 0 to 29%; pest or weed control at 140 g/ha ([1]; ABUTH: velvetleaf (Abutilon theophrasti), application rate 140 g ai/ha, read-out: Visual Growth Reduction (%) 14 Days After Application, ABUTH): 0 to 29%; pest or weed control at 70 g/ha ([1]; AMARE: redroot pigweed (Amaranthus retroflexus), read-out: Visual Growth Reduction (%) 14 Days After Application, AMARE): 0 to 29%; pest or weed control at 140 g/ha ([1]; AMARE: redroot pigweed (Amaranthus retroflexus), application rate 140 g ai/ha, read-out: Visual Growth Reduction (%) 14 Days After Application, AMARE): 0 to 29%; pest or weed control at 70 g/ha ([1]; BRSNN: oilseed-rape, canola (Brassica napus), read-out: Visual Growth Reduction (%) 14 Days After Application, BRSNN): 0 to 29%; pest or weed control at 140 g/ha ([1]; BRSNN: oilseed-rape, canola (Brassica napus), application rate 140 g ai/ha, read-out: Visual Growth Reduction (%) 14 Days After Application, BRSNN): 0 to 29%; pest or weed control at 70 g/ha ([1]; CHEAL: lambsquarters (Chenopodium album), read-out: Visual Growth Reduction (%) 14 Days After Application, CHEAL): 0 to 29%; pest or weed control at 140 g/ha ([1]; CHEAL: lambsquarters (Chenopodium album), application rate 140 g ai/ha, read-out: Visual Growth Reduction (%) 14 Days After Application, CHEAL): 0 to 29%; pest or weed control at 70 g/ha ([1]; EPHHL: wild poinsettia (Euphorbia heterophylla), read-out: Visual Growth Reduction (%) 14 Days After Application, EPHHL): 85 to 94%; pest or weed control at 140 g/ha ([1]; EPHHL: wild poinsettia (Euphorbia heterophylla), application rate 140 g ai/ha, read-out: Visual Growth Reduction (%) 14 Days After Application, EPHHL): 85 to 94%; pest or weed control at 70 g/ha ([1]; HELAN: sunflower (Helianthus annuus), read-out: Visual Growth Reduction (%) 14 Days After Application, HELAN): 60 to 74%; pest or weed control at 140 g/ha ([1]; HELAN: sunflower (Helianthus annuus), application rate 140 g ai/ha, read-out: Visual Growth Reduction (%) 14 Days After Application, HELAN): 75 to 84%; pest or weed control at 70 g/ha ([1]; VIOTR: wild pansy (Viola tricolor), read-out: Visual Growth Reduction (%) 14 Days After Application, VIOTR): 0 to 29%; pest or weed control at 140 g/ha ([1]; VIOTR: wild pansy (Viola tricolor), application rate 140 g ai/ha, read-out: Visual Growth Reduction (%) 14 Days After Application, VIOTR): 0 to 29%; pest or weed control at 70 g/ha [2, 10]: 0 to 29%; pest or weed control at 70 g/ha [2, 11]: 0 to 29%; pest or weed control at 70 g/ha [2, 12]: 0 to 29%; pest or weed control at 70 g/ha [2, 14]: 0 to 29%; pest or weed control at 70 g/ha [2, 16]: 0 to 29%; pest or weed control at 70 g/ha [2, 17]: 0 to 29%
